Series [1] is described as follows: Binding affinity to 7 gram of hydroxyapatite at 246 mg after 24 hrs by UV-spectrophotometer analysis. Type of series: physicochemical.
The test system of another series is CAKI-1. The series can be described thus: Growth inhibition of human Caki1 cells assessed as cell growth at 10 uM after 48 hrs by SRB assay relative to control. Type of series: functional. The following applies: CAKI-1, 48 h, read-out: Activity. Background: In SRB staining, fixed cells bind dye roughly in proportion to their protein.
The test system of another series is MDA-MB-435. The series can be described thus: Growth inhibition of human MDA-MB-435 cells assessed as cell growth at 10 uM after 48 hrs by SRB assay relative to control. Type of series: functional. As to conditions: MDA-MB-435, 48 h, read-out: Activity; call rule not given here.
The nature of series [2]: Binding affinity to 5 gram of hydroxyapatite at 246 mg after 24 hrs by UV-spectrophotometer analysis. Type of series: physicochemical.
The subject of series [3] is RAW264.7. Description: Selectivity ratio of IC50 for mouse RAW264.7 cells to IC50 for mouse LLC cells.
In series [4] the test system is RAW264.7. Description: cells. As to conditions: Mus musculus, RAW264.7, 72 h.
Description: Cytotoxicity against mouse RAW264.7 cells after 72 hrs by resazurin assay
Another series relates to HOP-62. The series can be described thus: Growth inhibition of human HOP62 cells assessed as cell growth at 10 uM after 48 hrs by SRB assay relative to control. The class given is functional. The following applies: HOP-62, 48 h, read-out: Activity.
Series [5] is described as follows: Cytotoxicity against mouse LLC cells after 24 hrs by resazurin assay. Type of series: functional, cell-based, Lewis lung carcinoma. (Resazurin is reduced to fluorescent resorufin, in cell work by metabolically active cells.)
In the next series the test system is SF-539. The series can be described thus: Growth inhibition of human SF539 cells assessed as cell growth at 10 uM after 48 hrs by SRB assay relative to control. The class given is functional. The following applies: SF-539, 48 h, read-out: Activity.
Another series deals with NCI-H322M. Description: Growth inhibition of human NCI-H322M cells assessed as cell growth at 10 uM after 48 hrs by SRB assay relative to control. The class given is functional. As to conditions: read-out: Activity.
The subject of the next series is SF-268. Description: Growth inhibition of human SF268 cells assessed as cell growth at 10 uM after 48 hrs by SRB assay relative to control. The class given is functional. As to conditions: SF-268, 48 h, read-out: Activity.
A further series has as its system OVCAR-3. The series can be described thus: Growth inhibition of human OVCAR3 cells assessed as cell growth at 10 uM after 48 hrs by SRB assay relative to control. The class given is functional. As to conditions: OVCAR-3, 48 h, read-out: Activity.
The nature of series [6]: Cytotoxicity against mouse LLC cells after 72 hrs by resazurin assay. The following applies: Lewis lung carcinoma. The class given is functional, cell-based.
For the next series, the system named is EKVX. The series can be described thus: Growth inhibition of human EKVX cells assessed as cell growth at 10 uM after 48 hrs by SRB assay relative to control. Type of series: functional. The following applies: read-out: Activity.
In another series the test system is HL-60(TB). The series can be described thus: Growth inhibition of human HL-60(TB) cells assessed as cell growth at 10 uM after 48 hrs by SRB assay relative to control. As to conditions: HL-60, 48 h, read-out: Activity. Type of series: functional.
Series [7] relates to RAW264.7.
Description: Cytotoxicity against mouse RAW264.7 cells after 24 hrs by resazurin assay
In a further series the test system is Malme-3M. Description: Growth inhibition of human MALME-3M cells assessed as cell growth at 10 uM after 48 hrs by SRB assay relative to control. Type of series: functional. The following applies: read-out: Activity.
The next series concerns SNB-75. The series can be described thus: Growth inhibition of human SNB75 cells assessed as cell growth at 10 uM after 48 hrs by SRB assay relative to control. As to conditions: SNB-75, 48 h, read-out: Activity. Type of series: functional.
Series [8] is described as follows: Chemical stability of the compound in hydrochloric acid at pH 2. Type of series: physicochemical. The following applies: buffer.
Series [9] is described as follows: Binding affinity to 7 gram of hydroxyapatite at 246 mg followed by acidified with hydrochloric acid at pH 2 measured after 24 hrs by UV-spectrophotometer analysis. The following applies: pH 2, 24 h. Type of series: physicochemical.
The mark [10] stands for this setting: Mus musculus, Lewis lung carcinoma, 24 h, read-out: IC50.

The structures appear in SMILES notation.

As usually defined, the IC50 is the midpoint of a concentration-inhibition curve. Consider `O=c1nc(NCCCC(O)(P(=O)([O-])O)P(=O)([O-])O)c(F)cn1[C@H]1C[C@H](O)[C@@H](CO)O1.[Na+].[Na+]`, for which the Activity in [1] is 87%; in series [2], 41%; in series [9], 74%. For the same molecule, the growth at 10 µM was 79% in the series on CAKI-1; 87% in the series on MDA-MB-435; 93% in the series with HOP-62; 95% in the series with SF-539; 89% in the series with NCI-H322M; 87% in the series on SF-268. Further, the growth at 10 µM in the series with OVCAR-3 came out at 88%; in the series on EKVX, 82%; in the series on HL-60(TB), 62%; with Malme-3M, 89%; with SNB-75, 87%. Besides, the “Ratio IC50” value in the series on RAW264.7 [3] came out at 167. Also, the IC50 with RAW264.7 [4] was 25000 nM; in series [5] (lewis lung carcinoma), “Not Active”; in series [6] it was 150 nM; in the series on RAW264.7 [7], “Not Active”. Moreover, the Stability result in series [8] is given as “Stable”.

As to `NCCCC(O)(P(=O)(O)O)P(=O)(O)O`, the figures for the concentration for half-maximal inhibition (IC50) in [5] (setting [10]) and in [6] were 430 nM and 2620 nM, respectively.

In [1], `O=c1[nH]c(=O)n([C@H]2C[C@H](O)[C@@H](CO)O2)cc1F` [FLOXURIDINE] gave an Activity of 15%. The IC50 with RAW264.7 [4] was 30000 nM; in [5] (setting [10]) it was 14200 nM; in series [6], 2000 nM; with RAW264.7 [7] it was “Not Active”.

Source of the values: ChEMBL document CHEMBL1777702, “N⁴-[Alkyl-(hydroxyphosphono)phosphonate]-cytidine-new drugs covalently linking antimetabolites (5-FdU, araU or AZT) with bone-targeting bisphosphonates (alendronate or pamidronate)” (Bioorg Med Chem, 2011).
